Measured values: patent US20040023994A1 (priority 2002, published 2004)
Where two headings read alike, the source gives them in different places. Marks after values point to notes of the source that are not given here.

Legend:
SW-620 = conditions: for CC50: read-out: LC50
Colon cell lines [1] = test: cells
Breast cell lines [2] = system: Breast cell lines
Prostate cell lines [3] = test: cells
CNS cell lines [4] = test: cells; conditions: Homo sapiens
NSCL cell lines [5] = test: cells
Leukemia cell lines [6] = test: cells
Breast cell lines [7] = test: cells
A-498 cells = test: MTT cytotoxicity assay; type: cell-based, human
Procedure: (§1) Preliminary studies examining the in vitro cytotoxicity of cis-AVTP and trans-AVTG as compared to the parent drugs, were carried out using the 3-[4,5-dimethylthiazol-2-yl]-2,5-diphenyl tetrazolium bromide (MTT) cytotoxicity assay.

ACHN cells = test: MTT cytotoxicity assay; type: cell-based, human
Procedure: as §1

Melanoma cell lines [8] = test: cells
Leukemia cell lines [9] = system: Leukemia cell lines
NSCL cell lines [10] = system: NSCL cell lines
Renal cell lines [11] = test: cells
Melanoma cell lines [12] = system: Melanoma cell lines
Ovarian cell lines = test: NCI anticancer screen, by tissue type; conditions: for GI50: read-out: median GI50; for CC50: read-out: median LC50
SK-OV-3 = conditions: for CC50: read-out: LC50
Prostate cell lines [13] = system: Prostate cell lines
Renal cell lines [14] = system: Renal cell lines
Colon cell lines [15] = system: Colon cell lines
[16] = system: all the cell lines included in the screen; test: cells
Procedure: cis-AVTP and trans-AVTG were tested in National Cancer Institute's (NCI) 60 cell lines derived from leukemia, melanoma, lung, kidney cancers. Most chemotherapeutic agents currently nd 6-TG, have been tested in this screen and a database he National Institutes of Health. The NCI assigned s-AVTP, and number NSC-722289 to trans-AVTG. tocol used for the cytotoxicity assessment in the NCI e from the National Institutes of Health. Briefly, tumor ma, lung, colon, brain, ovary, breast, prostate, and um containing 5% fetal bovine serum and 2 mM L-glutamine re plated in a 100 μL volume into 96 well microtiter 37° C. in humidified atmosphere supplemented with 5% ach cell line were fixed with trichloroacetic acid for f drug addition (Tz). The drugs, as 400-fold concentrated uted to twice the final maximum test concentration with entamicin. Additional four 10-fold dilutions were made us control. Aliquots (100 μl) of the drug solutions were 100 μl of medium, resulting in the required final drug the plates were incubated at 37° C. in humidified for additional 48 h. The assay was terminated by the w/v) trichloroacetic acid for adherent and suspension minutes at 4° C. The supernatant was discarded, the and air dried. A 100 μl aliquot of 0.4% (w/v) sulforhodamine B (SRB) solution in 1% acetic acid was added to each well, and the plates incubated for 10 minutes at room temperature. After staining, unbound dye was removed by washing five times with 1% acetic acid and the plates air dried. Bound stain was solubilized with 10 mM trizma base, and the absorbance read on a plate reader at a wavelength of 515 nm.
By using time zero (Tz), control growth (C), and test growth in the presence of drug at the five concentration levels (Ti), the percentage growth was calculated at each of the drug concentration levels. Percentage growth inhibition was calculated as:
[(Ti−Tz)/(C−Tz)]×100 for concentrations for which Ti>/=Tz
[(Ti−Tz)/Tz]×100 for concentrations for which Ti<Tz.
Three dose response parameters were calculated for each experimental agent. […] The TGI, the drug concentration resulting in total growth inhibition was calculated from Ti=Tz. The LC50 (the concentration of drug resulting in a 50% reduction in the measured protein at the end of the drug treatment as compared to that at the beginning) indicating a net loss of cells following treatment was calculated from [(Ti−Tz)/Tz]×100=−50. Values were calculated for each of these three parameters if the level of activity is reached; however, if the effect was not reached or was exceeded, the value for that parameter is expressed as greater or less than the maximum or minimum concentration tested.

CNS cell lines [17] = system: CNS cell lines
[18] = all cell lines of the NCI screen

## CC(=O)C=CSc1ncnc2nc[nH]c12 [cis-AVTP, 6-(2-acetylvinylthio) purine]
SW-620; Homo sapiens, SW-620, 48 h
  GI50: 1.52 µM
  CC50: > 100 µM
SW-620; SW-620, Colon, 48 h
  TGI: >100 µM
Colon cell lines [1]; read-out: median GI50
  GI50: 1.13 µM
Colon cell lines [1]; read-out: median LC50
  CC50: 25.3 µM
Breast cell lines [2]
  median TGI: 3.98 µM
Prostate cell lines [3]; read-out: median GI50
  GI50: 1.69 µM
Prostate cell lines [3]; read-out: median LC50
  CC50: 54.8 µM
CNS cell lines [4]; read-out: median GI50
  GI50: 1.69 µM
CNS cell lines [4]; read-out: median LC50
  CC50: 52.7 µM
NSCL cell lines [5]; read-out: median GI50
  GI50: 1.59 µM
NSCL cell lines [5]; read-out: median LC50
  CC50: 53.7 µM
Leukemia cell lines [6]
  GI50: < 0.5 µM
Leukemia cell lines [6]; read-out: median GI50
  GI50: 0.19 µM
Leukemia cell lines [6]; read-out: median LC50
  CC50: > 100 µM
Breast cell lines [7]; read-out: median GI50
  GI50: 0.55 µM
Breast cell lines [7]; read-out: median LC50
  CC50: > 100 µM
A-498 cells; Homo sapiens, A498, A-498, 24 h drug incubation
  IC50: 107 ± 14.7 µM
A-498 cells; Homo sapiens, A498, A-498, 48 h drug incubation
  IC50: 24.6 ± 4 µM
A-498 cells; Homo sapiens, A498, A-498, 72 h incubation, MTT
  IC50: 8 ± 1.2 µM
A-498 cells; Homo sapiens, A498, A-498, 96 h drug incubation
  IC50: 5.5 ± 0.9 µM
ACHN cells; Homo sapiens, 24 h drug incubation
  IC50: 58.2 ± 1.7 µM
ACHN cells; Homo sapiens, 48 h drug incubation
  IC50: 8.7 ± 0.9 µM
ACHN cells; Homo sapiens, 72 h incubation, MTT
  IC50: 3.7 ± 0.7 µM
ACHN cells; Homo sapiens, 96 h drug incubation
  IC50: 3.5 ± 0.4 µM
Melanoma cell lines [8]; read-out: median GI50
  GI50: 0.48 µM
Melanoma cell lines [8]; read-out: median LC50
  CC50: 9.58 µM
Leukemia cell lines [9]; Leukemia
  median TGI: 52.5^# μM
Leukemia cell lines [9]; leukemia cell lines CCRF-CEM, HL-60(TB), and RPMI-8226
  TGI: < 5 µM
NSCL cell lines [10]
  median TGI: 12.2 µM
Renal cell lines [11]; read-out: median GI50
  GI50: 0.49 µM
Renal cell lines [11]; read-out: median LC50
  CC50: 10.7 µM
Melanoma cell lines [12]
  median TGI: 3.24 µM
Ovarian cell lines; Ovarian
  median TGI: 4.55 µM
Ovarian cell lines
  GI50: 0.91 µM
  CC50: 27.7 µM
SK-OV-3; Homo sapiens, SK-OV-3, 48 h
  GI50: 0.11 µM
  CC50: 33.3 µM
SK-OV-3; SK-OV-3, Ovarian, 48 h
  TGI: 5.04 µM
Prostate cell lines [13]
  median TGI: 7.09 µM
Renal cell lines [14]
  median TGI: 2.67 µM
Colon cell lines [15]
  median TGI: 4.42 µM
[16]
  GI50: < 2 µM
[16]; [18]
  median TGI: 4.56 µM
[16]; read-out: LC50
  CC50: < 15 µM
[16]; read-out: median GI50
  GI50: 0.6 µM
[16]; read-out: median LC50
  CC50: 38.6 µM
CNS cell lines [17]
  median TGI: 10.7 µM

## CC(=O)C=CSc1nc(N)nc2nc[nH]c12 [trans-AVTG, 6-(2-acetylvinylthio) guanine]
SW-620; SW-620, Colon, 48 h
  GI50: 1.13 µM
  TGI: 6.50 µM
  CC50: > 100 µM
Breast cell lines [2]
  median TGI: 11.6 µM
Breast cell lines [2]; read-out: median GI50
  GI50: 0.97 µM
Breast cell lines [2]; read-out: median LC50
  CC50: 88.1 µM
A-498 cells; A-498, 72 h incubation, MTT
  IC50: 9.7 ± 2 µM
ACHN cells; 72 h incubation, MTT
  IC50: 4.1 ± 0.4 µM
Leukemia cell lines [9]; Leukemia
  median TGI: 13.4 µM
Leukemia cell lines [9]; read-out: median GI50, Leukemia
  GI50: 0.37 µM
Leukemia cell lines [9]; read-out: median LC50, Leukemia
  CC50: > 100 µM
NSCL cell lines [10]
  median TGI: 19.4 µM
NSCL cell lines [10]; read-out: median GI50
  GI50: 2.52 µM
NSCL cell lines [10]; read-out: median LC50
  CC50: 61.5 µM
Melanoma cell lines [12]
  median TGI: 10.1 µM
Melanoma cell lines [12]; read-out: median GI50
  GI50: 0.73 µM
Melanoma cell lines [12]; read-out: median LC50
  CC50: 53.1 µM
Ovarian cell lines; Ovarian
  median TGI: 3.41 µM
  GI50: 0.39 µM
  CC50: 51.4 µM
SK-OV-3; SK-OV-3, Ovarian, 48 h
  GI50: 0.24 µM
  TGI: 0.78 µM
  CC50: > 100 µM
Prostate cell lines [13]
  median TGI: 19.7 µM
Prostate cell lines [13]; read-out: median GI50
  GI50: 3.96 µM
Prostate cell lines [13]; read-out: median LC50
  CC50: 62.5 µM
Renal cell lines [14]
  median TGI: 14.3 µM
Renal cell lines [14]; read-out: median GI50
  GI50: 0.98 µM
Renal cell lines [14]; read-out: median LC50
  CC50: 52.8 µM
Colon cell lines [15]
  median TGI: 9.50 µM
Colon cell lines [15]; read-out: median GI50
  GI50: 1.43 µM
Colon cell lines [15]; read-out: median LC50
  CC50: 62.6 µM
[16]; [18]
  median TGI: 12.9 µM
[16]; read-out: median GI50, all cell lines of the NCI screen
  GI50: 0.98 µM
[16]; read-out: median LC50, all cell lines of the NCI screen
  CC50: 76.2 µM
CNS cell lines [17]
  median TGI: 32.4 µM
CNS cell lines [17]; read-out: median GI50
  GI50: 3.68 µM
CNS cell lines [17]; read-out: median LC50
  CC50: > 100 µM
